Experimental data taken from US7256024B2, “Tyrissamycin antibiotic” (Bristol-Myers Squibb Company, priority 1998, dated 2007).

What was measured:
[1] = test system: Staphylococcus aureus strain SA1; assay: Well-agar diffusion biological assay; format: cell-based; details: sample 5 mg/ml; S. aureus SA1; 7 mm agar wells; fractions of final purification
Description: Assays for detection and evaluation of the antibacterial activity of tyrissamycin employ various strains of Staphylococcus aureus. The primary biological assay system consists of S. aureus strain SA1.
SA1 is grown at 37° C. overnight in Antibiotic Assay Broth (BBL, Cockeysville, Md.). The culture is centrifuged at 4000 rpm for 10 minutes and the medium is decanted. Cells are resuspended in 0.9% saline. The culture is adjusted to 25% transmission (600 nm wavelength) using a Coleman Junior Spectrophotometer. This 25% working cell suspension is stored at 4° C. for use as the assay inoculum.
All biological assays employ agar diffusion techniques. Assay agar is Seed Agar (BBL) supplemented after autoclaving with 4% of phosphate-nitrate buffer, pH 7.0, and 0.3% of a 2% solution of triphenyltetrazolium chloride. For well-agar diffusion assays, assay agar is seeded with 1% of the working cell suspension of SA1. The seeded agar is poured into Petri dishes or bioassay trays and allowed to harden. Wells (7 mm diameter) are cut in the agar, and 40 μl sample aliquots are added to the wells. (For some assays, 3 μl of sample are spotted directly on the surface of the agar). Plates are incubated at 37° C. for 18-24 hours, and zones of inhibition (if any) are measured. Inhibition zone sizes correlated with the activity of tyrissamycin in various samples.

[2] = Solubility; format: physicochemical
Text: A purified sample of tyrissamycin was isolated as a white amorphous powder. […] FIG. 3 (CD3OD) • ^13C-NMR: See FIG. 4 (CD3OD)

[3] = test system: Streptococcus pneumoniae; assay: MIC, microtiter dilution technique; format: cell-based; details: Mueller-Hinton broth, 37° C., 16-24 hours
Description: (§1) Tyrissamycin was evaluated in vitro to detemine the minimal inhibitory concentrations (MIC) against seven gram-positive bacteria using the microtiter dilution technique. This method is described by T. B. Conrath, “Handbook of Microtiter Procedures,” Dynatech Corp., Cambridge, Mass., USA (1972); and T. L. Gavan et al “Microdilution Test Procedures,” in Manual of Clinical Microbiology, E. H. Lennette, Ed., American Soc. for Microbiol., Washington, D.C., USA (1980). These tests are performed in accordance with procedures established by the National Committee on Clinical Laboratory Standards (NCCLS). The test procedure is as follows: Each well of a sterile 96-well microdilution tray is filled under aseptic conditions with 0.1 ml of Mueller-Hinton broth. A 0.05-ml sample of the test compound solution is added to a well in the first row of the tray. A microdilutor apparatus is used to simultaneously mix the contents of these wells and to transfer aliquots to each succeeding row of cells to obtain a range of serially diluted solutions. The last row of wells is untreated and serves as a control. Each well containing broth and test compound is inoculated with about ten microliters of inoculum of a given test microorganism. One well in the last row of wells (which is free of test compound) is not inoculated and is used as a sterility control. The trays are sealed and incubated at 37° C. for 16-24 hours.

[4] = test system: Streptococcus pyogenes; assay: MIC, microtiter dilution technique; format: cell-based; details: Mueller-Hinton broth, 37° C., 16-24 hours
Description: as §1

[5] = test system: Enterococcus faecium; assay: MIC, microtiter dilution technique; format: cell-based; details: Mueller-Hinton broth, 37° C., 16-24 hours
Description: as §1

[6] = test system: Staphylococcus epidermidis; assay: MIC, microtiter dilution technique; format: cell-based; details: Mueller-Hinton broth, 37° C., 16-24 hours
Description: as §1

[7] = test system: Staphylococcus aureus; assay: MIC, microtiter dilution technique; format: cell-based; details: Mueller-Hinton broth, 37° C., 16-24 hours
Description: as §1

[8] = test system: Staphylococcus haemolyticus; assay: MIC, microtiter dilution technique; format: cell-based; details: Mueller-Hinton broth, 37° C., 16-24 hours
Description: as §1

[9] = test system: Enterococcus faecalis; assay: MIC, microtiter dilution technique; format: cell-based; details: Mueller-Hinton broth, 37° C., 16-24 hours
Description: as §1

tyrissamycin
Inhibition Zone [1]: 14.0 mm | Solubility ([2]; in chloroform): Soluble | Solubility ([2]; in dimethylsulfoxide (DMSO)): Soluble | Solubility ([2]; in methanol): Soluble | Solubility ([2]; in water): practically insoluble | Minimal Inhibitory Concentration [3]: 4 µg/mL | Minimal Inhibitory Concentration [4]: 4 µg/mL | Minimal Inhibitory Concentration [5]: 64 µg/mL | Minimal Inhibitory Concentration [6]: 32 µg/mL | Minimal Inhibitory Concentration [7]: 32 µg/mL | Minimal Inhibitory Concentration [8]: 32 µg/mL | Minimal Inhibitory Concentration [9]: 32 µg/mL
